Test results published in patent publication US10435402B2, “Bicyclic compounds, compositions and medicinal applications thereof” (Advinus Therapeutics Limited, priority 2015, dated 2019).

biological target: T1, GAL4-DBD/RORγ-LBD (Homo sapiens, UniProt P51449); assay: RORγt transactivation reporter assay (GAL4-DBD/RORγ-LBD, luciferase read out); assay type: cell-based; conditions: HEK293T cells, GAL4-UAS luciferase reporter, overnight (18-24 hours) incubation
T1 construct: expressed in transfected cells; host or cells: HEK293T
Description: RORγt Transactivation Reporter Assay Protocol: The inhibition of RORγt activity in cells was evaluated using a GAL4-UAS reporter system in HEK293T cells employing a luciferase read out. RORγt ligand binding domain (LBD) was cloned into the pFN26A (BIND) vector (Promega #[…]) containing yeast GAL4-DBD to form a RORγt LBD-GAL4 DBD fusion construct. This vector also contained a Renilla Luciferase reporter expressed under a SV40 promoter which was used as a control for transfection efficiency. A transcriptional reporter expression construct pGL4.35 (Promega #[…]) was used to monitor RORγt LBD-GAL4 activity. This construct contained nine repeats of GAL4 binding site/upstream activating sequence (UAS) controlling expression of a firefly luciferase reporter Luc2P. When transfected together in cells, the RORγ-LBD-DBD fusion protein drives expression of the luciferase reporter. For the assay, HEK293T cells were plated in a flat bottom 96 well plate at a density of 25,000 cells/well/100 ul of DMEM high glucose medium (Sigma D5648) containing 10% FBS and antibiotic. Cells were incubated overnight at 37 C/5% CO2. The next day, medium from the wells was removed and replaced with 30 ul of OptiMEM® (Invitrogen #31985070). 100 ng each of pBIND RORγ LBD-DBD and pGL4.35 reporter plasmids was transfected in HEK293T cells using Lipofectamine 2000 (Invitrogen #11668-019) where 10 ul of transfection complex was added to the each well. Control transfections were performed with an empty pF[…] vector and pGL4.35 vector. The transfected cells were incubated for 5 hours at 37 C/5% CO2. After incubation, 40 ul of DMEM high glucose medium without FBS, with antibiotic was added to each well. A 10 mM stock solution of test compound prepared in 100% DMSO was first diluted in DMSO and then in DMEM medium without FBS to give the required final compound concentration. Concentration of DMSO in the test compound solution was 0.4%. 20 ul of diluted compound solution was added to each well. Cells were incubated overnight (18-24 hours) at 37 C/5% CO2. The next day, luciferase assay was performed using the Dual Glo® Luciferase Assay System (Promega #E2940). Briefly, medium was removed from the wells and replaced with 40 ul 1× Passive Lysis Buffer (Promega #E1941). Plate was incubated at room temperature on a plate shaker at 1000 rpm for 40 min. After incubation, plate was centrifuged at 1000 rpm for 2 min. 20 ul of the lysate was transferred from each well to that of solid white half area 96 well plate (Costar #3693). Dual Glo® Reagent was thawed to room temperature and 20 ul was added to each well containing lysate. Plate was centrifuged at 1000 rpm/2 min and incubated at room temperature on a plate shaker at 600 rpm/25 min. Firefly luciferase signal was measured on a Tecan Safire2. After measurement, 20 ul of Dual Glo® Stop Glo® Reagent was added to each well. Plate was centrifuged at 1000 rpm/2 min and incubated at room temperature on a plate shaker at 600 rpm/25 min. Renilla luciferase signal was measured on Tecan Safire 2. IC50 values for test compounds were calculated from the normalized luciferase signal data using GraphPad Prism software.

T1 sequence (P51449 269-508 limits assumed): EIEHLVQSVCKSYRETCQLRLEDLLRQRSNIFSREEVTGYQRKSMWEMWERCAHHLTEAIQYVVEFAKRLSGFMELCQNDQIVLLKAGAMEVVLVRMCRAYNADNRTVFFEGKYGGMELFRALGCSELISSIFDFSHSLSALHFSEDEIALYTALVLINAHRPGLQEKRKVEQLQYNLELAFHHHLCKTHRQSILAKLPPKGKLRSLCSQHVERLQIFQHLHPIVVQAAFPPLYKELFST
T1 sequence (P04386 1-147 partner limits assumed): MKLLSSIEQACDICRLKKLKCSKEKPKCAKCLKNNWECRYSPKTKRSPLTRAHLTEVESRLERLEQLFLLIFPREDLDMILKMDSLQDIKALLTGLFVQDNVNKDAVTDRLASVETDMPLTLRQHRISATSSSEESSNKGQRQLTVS

Compared with “4-[3-(2,6-dibromobenzoyl)indolizin-1-yl]benzoic acid [Example A-53]”, “4-[3-(2,6-dichloro-3-fluoro-benzoyl)-5,6,7,8-tetrahydroindolizin-1-yl]benzoic acid [Example H-3]” is higher in IC50: less than 5 µM for the first, greater than 5 µM for the second.

Going from “4-[3-(2,6-dichloro-3-fluoro-benzoyl)indolizin-1-yl]-N,N-dimethyl-benzamide [Example F-2]” to “4-[3-(2,6-dichlorobenzoyl)-6-(4H-1,2,4-triazol-3-yl)indolizin-1-yl]benzoic acid [Example D-10]”, the IC50 falls from greater than 5 µM to less than 0.5 µM. The second is the more potent here.

Compared with “4-[3-(2,6-dichlorobenzoyl)-6-(methylcarbamoyl)indolizin-1-yl]benzoic acid [Example D-9]”, “4-[3-(2,6-dichlorophenoxy)indolizin-1-yl]benzoic acid [Example E-3]” is higher in IC50: less than 5 µM for the first, greater than 5 µM for the second. The first is the more potent here.

“4-[3-(2,6-difluorobenzoyl)indolizin-1-yl]benzoic acid [Example A-37]” and “4-[3-(2-chloro-6-fluoro-benzoyl)indolizin-1-yl]benzoic acid [Example A-28]” cannot be ordered by IC50: less than 0.5 µM for the first, less than 0.5 µM for the second.

“4-[3-(2-chloro-6-methyl-benzoyl)-5,6,7,8-tetrahydroindolizin-1-yl]benzoic acid [Example H-5]” and “4-[3-[2-chloro-6-(trifluoromethyl)benzoyl]-6-(pyrrolidine-1-carbonyl)indolizin-1-yl]benzoic acid [Example D-12]” cannot be ordered by IC50: less than 0.5 µM for the first, less than 0.5 µM for the second.

“4-[6-carbamoyl-3-(2,6-dichlorobenzoyl)indolizin-1-yl]benzoic acid [Example D-13]” and CCOC(=O)c1ccc(-c2cc(C(=O)c3c(Cl)cccc3C(F)(F)F)n3ccccc23)cc1 [Example A-1, Ethyl 4-[3-[2-chloro-6-(trifluoromethyl)benzoyl]indolizin-1-yl]benzoate] cannot be ordered by IC50: less than 5 µM for the first, less than 0.5 µM for the second.

O=C(O)c1ccc(-c2cc(C(=O)c3c(Cl)cccc3C(F)(F)F)n3ccccc23)cc1 [Example A-2, 4-[3-[2-chloro-6-(trifluoromethyl)benzoyl]indolizin-1-yl]benzoic acid] and O=C(O)c1ccc(-c2cc(C(=O)c3c(Cl)cccc3Cl)n3ccccc23)c(F)c1 [Example A-3, 4-[3-(2,6-dichlorobenzoyl)indolizin-1-yl]-3-fluoro-benzoic acid] cannot be ordered by IC50: less than 0.5 µM for the first, less than 0.5 µM for the second.

COC(=O)c1ccc(-c2cc(C(=O)c3c(Cl)cccc3Cl)n3ccccc23)c(F)c1 [Example A-4, methyl 4-[3-(2,6-dichlorobenzoyl)indolizin-1-yl]-3-fluoro-benzoate] and COC(=O)c1ccc(-c2cc(C(=O)c3c(F)cccc3F)n3ccccc23)c(F)c1 [Example A-5, methyl 4-[3-(2,6-difluorobenzoyl)indolizin-1-yl]-3-fluoro-benzoate] cannot be ordered by IC50: less than 0.5 µM for the first, less than 0.5 µM for the second.

CCOC(=O)c1ccc(-c2cc(C(=O)c3c(Cl)cccc3Cl)n3ccccc23)cc1 [Example A-6, ethyl 4-[3-(2,6-dichlorobenzoyl)indolizin-1-yl]benzoate] and COC(=O)c1cc(F)c(-c2cc(C(=O)c3c(Cl)cccc3Cl)n3ccccc23)c(F)c1 [Example A-7, methyl 4-[3-(2,6-dichlorobenzoyl)indolizin-1-yl]-3,5-difluoro-benzoate] cannot be ordered by IC50: less than 0.5 µM for the first, less than 0.5 µM for the second.

O=C(O)c1ccc(-c2cc(C(=O)c3c(Cl)cccc3Cl)n3ccccc23)cc1 [Example A-8, 4-[3-(2,6-dichlorobenzoyl)indolizin-1-yl]benzoic acid] and O=C(O)c1cc(F)c(-c2cc(C(=O)c3c(Cl)cccc3Cl)n3ccccc23)c(F)c1 [Example A-9, 4-[3-(2,6-dichlorobenzoyl)indolizin-1-yl]-3,5-difluoro-benzoic acid] cannot be ordered by IC50: less than 0.5 µM for the first, less than 0.5 µM for the second.

First: O=C(O)c1ccc(-c2cc(C(=O)c3c(Cl)cccc3Cl)n3ccccc23)cn1 [Example A-10, 5-[3-(2,6-dichlorobenzoyl)indolizin-1-yl]pyridine-2-carboxylic acid]
Second: COC(=O)c1ccc(-c2cc(C(=O)c3c(Cl)cccc3C(F)(F)F)n3ccccc23)c(F)c1 [Example A-11, methyl 4-[3-[2-chloro-6-(trifluoromethyl)benzoyl]indolizin-1-yl]-3-fluoro-benzoate]
The IC50 of the first is higher: greater than 5 µM for the first, less than 0.5 µM for the second. The second is the more potent here.

O=C(O)c1ccc(-c2cc(C(=O)c3c(Cl)cccc3C(F)(F)F)n3ccccc23)c(F)c1 [Example A-12, 4-[3-[2-chloro-6-(trifluoromethyl)benzoyl]indolizin-1-yl]-3-fluoro-benzoic acid] and COC(=O)c1ccc(-c2cc(C(=O)c3c(C)cccc3Cl)n3ccccc23)c(F)c1 [Example A-13, methyl 4-[3-(2-chloro-6-methyl-benzoyl)indolizin-1-yl]-3-fluoro-benzoate] cannot be ordered by IC50: less than 0.5 µM for the first, less than 0.5 µM for the second.

CCOC(=O)c1ccc(-c2cc(C(=O)c3c(C)cccc3Cl)n3ccccc23)cc1 [Example A-14, ethyl 4-[3-(2-chloro-6-methyl-benzoyl)indolizin-1-yl]benzoate] and Cc1cccc(Cl)c1C(=O)c1cc(-c2ccc(C(=O)O)cc2F)c2ccccn12 [Example A-15, 4-[3-(2-chloro-6-methyl-benzoyl)indolizin-1-yl]-3-fluoro-benzoic acid] cannot be ordered by IC50: less than 0.5 µM for the first, less than 0.5 µM for the second.

Cc1cccc(Cl)c1C(=O)c1cc(-c2ccc(C(=O)O)cc2)c2ccccn12 [Example A-16, 4-[3-(2-chloro-6-methyl-benzoyl)indolizin-1-yl]benzoic acid] and COC(=O)c1ccc(-c2cc(C(=O)c3c(Cl)ccc(F)c3Cl)n3ccccc23)c(F)c1 [Example A-17, methyl 4-[3-(2,6-dichloro-3-fluoro-benzoyl)indolizin-1-yl]-3-fluoro-benzoate] cannot be ordered by IC50: less than 0.5 µM for the first, less than 0.5 µM for the second.

O=C(O)c1ccc(-c2cc(C(=O)c3c(Cl)ccc(F)c3Cl)n3ccccc23)c(F)c1 [Example A-18, 4-[3-(2,6-dichloro-3-fluoro-benzoyl)indolizin-1-yl]-3-fluoro-benzoic acid] and O=C(O)c1ccc(-c2cc(C(=O)c3c(Cl)ccc(F)c3Cl)n3ccccc23)cc1 [Example A-19, 4-[3-(2,6-dichloro-3-fluoro-benzoyl)indolizin-1-yl]benzoic acid] cannot be ordered by IC50: less than 0.5 µM for the first, less than 0.5 µM for the second.

CCOC(=O)c1ccc(-c2cc(C(=O)c3c(Cl)cccc3Cl)n3cccc(F)c23)cc1 [Example A-21, ethyl 4-[3-(2,6-dichlorobenzoyl)-8-fluoro-indolizin-1-yl]benzoate] and COC(=O)c1ccc(-c2cc(C(=O)c3c(Cl)cccc3Cl)n3cccc(F)c23)c(F)c1 [Example A-22, methyl 4-[3-(2,6-dichlorobenzoyl)-8-fluoro-indolizin-1-yl]-3-fluoro-benzoate] cannot be ordered by IC50: less than 0.5 µM for the first, less than 0.5 µM for the second.

O=C(O)c1ccc(-c2cc(C(=O)c3c(Cl)cccc3Cl)n3cccc(F)c23)cc1 [Example A-23, 4-[3-(2,6-dichlorobenzoyl)-8-fluoro-indolizin-1-yl]benzoic acid] and CCOC(=O)c1ccc(-c2cc(C(=O)c3c(F)cccc3Cl)n3ccccc23)cc1 [Example A-24, ethyl 4-[3-(2-chloro-6-fluoro-benzoyl)indolizin-1-yl]benzoate] cannot be ordered by IC50: less than 0.5 µM for the first, less than 0.5 µM for the second.

O=C(O)c1ccc(-c2cc(C(=O)c3c(Cl)cccc3Cl)n3cc(F)ccc23)cc1 [Example A-26, 4-[3-(2,6-dichlorobenzoyl)-6-fluoro-indolizin-1-yl]benzoic acid] and O=C(O)c1ccc(-c2cc(C(=O)c3c(F)cccc3Cl)n3ccccc23)c(F)c1 [Example A-27, 4-[3-(2-chloro-6-fluoro-benzoyl)indolizin-1-yl]-3-fluoro-benzoic acid] cannot be ordered by IC50: less than 0.5 µM for the first, less than 0.5 µM for the second.

O=C(O)c1ccc(-c2cc(C(=O)c3c(Cl)cccc3C3CC3)n3ccccc23)c(F)c1 [Example A-29, 4-[3-(2-chloro-6-cyclopropyl-benzoyl)indolizin-1-yl]-3-fluoro-benzoic acid] and CCOC(=O)c1ccc(-c2cc(C(=O)c3c(Cl)cccc3C3CC3)n3ccccc23)c(F)c1 [Example A-30, ethyl 4-[3-(2-chloro-6-cyclopropyl-benzoyl)indolizin-1-yl]-3-fluoro-benzoate] cannot be ordered by IC50: less than 0.5 µM for the first, less than 0.5 µM for the second.
